# In ChEMBL document CHEMBL3632499, “Synthesis and Antiproliferative Activity Evaluation of the Disulfide-Containing Cyclic Peptide Thiochondrilline C and Derivatives” (J Nat Prod, 2015):
# Positions of bridges follow the written chain, without caps; N, C: chain ends. Non-standard residues stand in square brackets, D forms with d. Residues, ends and D or L forms follow the SMILES beside them. Chains are numbered I, II in the order given. *: point of attachment. Quinaldoyl(3-OH) = O=C(c1nc2ccccc2cc1O)*; NMeC = CN[C@@H](CS)C(=O)O
# Test system: A549
# Test: Cytotoxicity against human A549 cells
# Type: functional, cell-based
structure (smiles),measurement,value
"CSC[C@H]1C(=O)SC[C@@H](NC(=O)c2nc3ccccc3cc2O)C(=O)NCC(=O)N(C)[C@H]2CSSC[C@@H](C(=O)N1C)N(C)C(=O)CNC(=O)[C@H](NC(=O)c1nc3ccccc3cc1O)CSC(=O)[C@H](CSC)N(C)C2=O [THIOCORALINE A] (I: {Quinaldoyl(3-OH)}-[dC]G[NMeC][NMeC](Me) / II: {Quinaldoyl(3-OH)}-[dC]G[NMeC][NMeC](Me); thioester I:1-II:C, I:C-II:1; disulfide I:3-II:3)",EC50,10 nM
